From US9132176B2, “RAB6KIFL/KIF20A epitope peptide and vaccines containing the same” (ONCOTHERAPY SCIENCE, INC., priority 2008, dated 2015)
Where a SMILES comes first, the peptide text is derived from it.

Tests used:
T2 cells = test: Induction of human CTLs from PBMCs, 51Cr release assay against peptide-pulsed T2 cells; assay type: cell-based; conditions: CTLs from PBMCs of two HLA-A2-positive healthy donors, three stimulations with peptide-pulsed DCs
Excerpt: (§1) Human RAB6KIFL-derived peptides (purity>95%), carrying binding motifs for HLA-A2 (A*0201)-encoded molecules, were selected using the BIMAS software program (BioInformatics and Molecular Analysis Section, Center for Information Technology, NIH, Bethesda, Md.) and 36 peptides were synthesized (American Peptide Company, CA, USA) (Tables 1A and B). Monocyte-derived DCs were used as antigen-presenting cells to induce CTL responses against peptides presented in the context of HLA. DCs were generated in vitro culture as described previously (Yoshitake Y, et al. Clin Cancer Res 2004; 10:6437-48, Harao M, et al. Int J Cancer 2008; in press, Imai K, et al. Clin Cancer Res 2008; in press). Briefly, PBMCs isolated from a normal volunteer positive for HLA-A2 using Ficoll-Plaque (GE Healthcare UK, Ltd., Buckinghamshire, UK) solution were sorted to CD8^+ population and CD14^+ population with microbeads (Miltenyi Biotec, Bergisch Gladbach, Germany). To generate DCs, the CD14^+ population was cultured in the presence of 100 ng/mL granulocyte-macrophage colony-stimulating factor (GM-CSF; PeproTec Inc., NJ, USA) and 10 ng/mL interleukin (IL)-4 (PeproTec) in AIM-V (Invitrogen) containing 2% heat-inactivated autologous plasma. After 5 days of culture, OK-432 was added into the dish to make the DCs mature. […]
(§2) The CTLs were cocultured with each of the cancer cells, or the peptide-pulsed T2 cells, as a target cell (5×10^3/well) at the indicated effector/target ratio and a standard ^51Cr release assay was done as described previously (Yoshitake Y, et al. Clin Cancer Res 2004; 10:6437-48. Imai K, et al. Clin Cancer Res 2008; in press). […] After 6 h incubation, 50 micro L of the supernatant was collected from each well and the radioactivity was quantified using a gamma counter. The specific cytotoxicity was evaluated by calculating the percentage of specific ^51Cr release. […]

PANC1 = test: 51Cr release assay of peptide-induced CTLs against PANC1; assay type: cell-based, human; conditions: PANC1 (RAB6KIFL+, HLA-A2+); healthy donors
Excerpt: as §1, §2

SKHep1/Mock = test: 51Cr release assay of peptide-induced CTLs against SKHep1/Mock; assay type: cell-based, human; conditions: mock-transfected SKHep1
Method: (§3) A lentiviral vector-mediated gene transfer was performed as described previously (Imai K, et al. Clin Cancer Res 2008; 14:6487-95, Tahara-Hanaoka S, et al. Exp Hematol 2002; 30:11-7). Briefly, 17 micro-g of CSII-CMV-RfA and CSIIEF-RfA self-inactivating vectors (Miyoshi H, et al. J Virol 1998; 72: 8150-7) carrying RAB6KIFL cDNAs and 10 micro-g of pCMV-VSV-G-RSV-Rev and pCAG-HIVgp were transfected into the 293T cells grown in a 10-cm culture dish using Lipofectamine 2000 reagent (Invitrogen Corporation, Carlsbad, Calif., USA). After 60 hr of transfection, the medium was recovered and the viral particles were pelleted by ultra-centrifugation (50,000×g, 2 hr). The pellet was suspended in 50 micro-L of RPMI 1640 medium and 10 micro-L of viral suspension was added to 5×10^4 SKHep1 cells, per well in a flat-bottom 96-well plate. The expression of the transfected RAB6KIFL gene was confirmed by a Western blot analysis.
as §1, with “Germany).” for “Germany). To generate DCs, the CD14^+ population was cultured in the presence of 100 ng/mL granulocyte-macrophage colony-stimulating factor (GM-CSF; PeproTec Inc., NJ, USA) and 10 ng/mL interleukin (IL)-4 (PeproTec) in AIM-V (Invitrogen) containing 2% heat-inactivated autologous plasma. After 5 days of culture, OK-432 was added into the dish to make the DCs mature.”

SKHep1/RAB6KIFL = test: 51Cr release assay of peptide-induced CTLs against SKHep1/RAB6KIFL; assay type: cell-based, human; conditions: SKHep1 transfected with RAB6KIFL gene (RAB6KIFL high, HLA-A2+)
Method: as §3
as §1, with “Germany).” for “Germany). To generate DCs, the CD14^+ population was cultured in the presence of 100 ng/mL granulocyte-macrophage colony-stimulating factor (GM-CSF; PeproTec Inc., NJ, USA) and 10 ng/mL interleukin (IL)-4 (PeproTec) in AIM-V (Invitrogen) containing 2% heat-inactivated autologous plasma. After 5 days of culture, OK-432 was added into the dish to make the DCs mature.”

CaCo-2 = test: 51Cr release assay of peptide-induced CTLs against CaCo-2; assay type: cell-based, human; conditions: CaCo-2 (RAB6KIFL+, HLA-A2+); healthy donors
Excerpt: as §1, §2

HLA-A2 (HHD) Tgm = test: Autoimmune phenomenon after peptide vaccination: immunohistochemistry with anti-CD4/anti-CD8 mAb and observation; assay type: in vivo, mouse
Method: Western blotting and immunohistochemical staining of RAB6KIFL protein were performed as described previously (Nakatsura T, et al. Biochem Biophys Res Commun 2001; 281:936-44. Yoshitake Y, et al. Clin Cancer Res 2004; 10:6437-48). For Western blotting analyses of human normal tissues, a pre-made human adult normal tissue blot (Biochain, Hayward, Calif.) was used. The primary antibodies used herein, anti-RAB6KIFL polyclonal antibody, and monoclonal anti-b-actin antibody, were purchased from Bethyl Laboratories, Inc. (Montgomery, Tex., USA) and Sigma (Steinheim, Germany), respectively. Immunohistochemical staining of CD4 or CD8 in tissue specimens of HLA-A2.1 (HHD) Tgm immunized with the RAB6KIFL-A2-10-284 peptide was done as described previously (Matsuyoshi H, et al. 2004; 172:776-86).
It is very important to investigate whether the immunization with RAB6KIFL peptide induce an autoimmune reaction or not. We thus performed the immunohistochemical analysis of several vital organs with anti-CD4 and anti-CD8 mAb in HLA-A2 (HHD) Tgm after two-times vaccination with RAB6KIFL-A2-9-809 peptide, of which amino-acid sequences were completely conserved between human and mouse RAB6KIFL. […] The abnormalities frequently observed in mice affected with autoimmune diseases such as abnormal hair and skin, diarrhea and weight loss were also not observed in these mice.

[1] = test system: cancer cells expressing both RAB6KIFL and HLA-A2; test: Comparison of the cytotoxicity of CTLs induced by the three peptides; assay type: cell-based, human; conditions: vs RAB6KIFL-A2-9-12 and RAB6KIFL-A2-10-284
Method: The CTLs were cocultured with each of the cancer cells, or the peptide-pulsed T2 cells, as a target cell (5×10^3/well) at the indicated effector/target ratio and a standard ^51Cr release assay was done as described previously (Yoshitake Y, et al. Clin Cancer Res 2004; 10:6437-48. Imai K, et al. Clin Cancer Res 2008; in press). Briefly, target cells were labeled with 3.7 KBq […] (Perkin Elmer Life Sciences) for 1 h at 37 degree C. in a CO2 incubator. Labeled target cells were rinsed three times, and peptide-pulsed target cells were prepared by incubating the cells with 20 micro g/mL peptide for 3 h at 37 degrees C. Target cells were mixed with effector cells in final volume of 200 micro L in flat-bottomed microtiter plates and incubated. After 6 h incubation, 50 micro L of the supernatant was collected from each well and the radioactivity was quantified using a gamma counter. The specific cytotoxicity was evaluated by calculating the percentage of specific ^51Cr release.
The potential of RAB6KIFL as an immunotherapeutic target was verified herein by identifying the HLA-A2-restricted epitope peptides and evaluating their immunogenicity. […]

Structure (SMILES) | cytotoxic activity of induced CTLs to T2 cells pulsed with the peptide (T2 cells) | cytotoxicity of peptide-stimulated CTLs to PANC1 (PANC1) | cytotoxicity of peptide-induced CTLs against SKHep1/Mock (SKHep1/Mock) | cytotoxicity of peptide-induced CTLs against SKHep1/RAB6KIFL (SKHep1/RAB6KIFL) | cytotoxicity of peptide-stimulated CTLs to CaCo-2 (CaCo-2) | pathologic change (lymphocyte infiltration or tissue destruction suggesting autoimmunity) in vital organs (HLA-A2 (HHD) Tgm; after two-times vaccination, anti-CD4 and anti-CD8 staining) | abnormalities of autoimmune disease (abnormal hair and skin, diarrhea, weight loss) (HLA-A2 (HHD) Tgm; mouse, in vivo) | cytotoxicity of peptide-induced CTLs compared with CTLs induced by the other two peptides [1]
CC(C)C[C@H](NC(=O)[C@@H]1CCCN1C(=O)[C@H](C)NC(=O)[C@@H](NC(=O)[C@H](CC(=O)O)NC(=O)[C@@H]1CCCN1C(=O)[C@H](CCC(N)=O)NC(=O)[C@H](C)N)[C@@H](C)O)C(=O)N1CCC[C@H]1C(=O)N[C@H](C(=O)O)C(C)C [RAB6KIFL-A2-10-284, AQPDTAPLPV] (H-AQPDTAPLPV-OH; N-terminus and C-terminus assumed) | exhibited cytotoxic activity | exhibited cytotoxicity | but not against SKHep1/Mock | exhibited cytotoxicity | exhibited cytotoxicity | – | – | –
CC(C)C[C@H](NC(=O)[C@@H](N)CC(C)C)C(=O)N[C@@H](CO)C(=O)N[C@@H](CC(=O)O)C(=O)N[C@@H](CC(=O)O)C(=O)N[C@@H](CC(=O)O)C(=O)N[C@H](C(=O)N[C@H](C(=O)N[C@H](C(=O)O)C(C)C)C(C)C)C(C)C [RAB6KIFL-A2-9-12, LLSDDDVVV] (H-LLSDDDVVV-OH; N-terminus and C-terminus assumed) | exhibited cytotoxic activity | exhibited cytotoxicity | but not against SKHep1/Mock | exhibited cytotoxicity | exhibited cytotoxicity | – | – | –
CC[C@H](C)[C@H](NC(=O)[C@@H](N)CS)C(=O)N[C@@H](C)C(=O)N[C@@H](CCC(=O)O)C(=O)N[C@@H](CCC(N)=O)C(=O)N[C@@H](Cc1ccc(O)cc1)C(=O)N[C@@H](Cc1c[nH]cn1)C(=O)N[C@H](C(=O)N[C@H](C(=O)O)C(C)C)[C@@H](C)O [RAB6KIFL-A2-9-809, CIAEQYHTV] (H-CIAEQYHTV-OH; N-terminus and C-terminus assumed) | exhibited cytotoxic activity | exhibited cytotoxicity | but not against SKHep1/Mock | exhibited cytotoxicity | exhibited cytotoxicity | no pathologic change | not observed | stronger cytotoxicity
